Where a SMILES comes first, the peptide text is derived from it. [ ]: non-standard residue; d: D form. The star is where a group is joined. 5TAMRA = CN(C)c1ccc2c(c1)Oc1cc(N(C)C)ccc1C21OC(=O)c2cc(C(=O)*)ccc21
How the values were obtained:
[1] = Systemic distribution in dissected organs, ex vivo imaging; parameters: species or system mouse; settings: for organ distribution of TMR-labeled peptide: major organs collected at 30 min and 4 h after i.v. injection
Experimental: (§1) Ex vivo real-time fluorescence imaging analysis was used to evaluate the tumor targeting activity of TMR-RIF7. One week after inoculation, TMR-IF7 or TMR-RIF7 (200 µl, 0.5 mg/ml in 5% glucose solution) was injected through the tail vein of mice bearing pulmonary tumors. The mice were then sacrificed and perfused intracardially with normal saline to compare tissue and tumor distribution of TMR-RIF7. Tumor-bearing lungs and other major organs, including hearts, livers, spleens and kidneys were removed, washed with saline, and imaged using a Cambridge Research & Instrumentation (CRi) in vivo imaging system (CRi, MA, USA). When subcutaneous KBv tumors were grown to a palpable size (about 8–10 mm diameter), the same process was carried out to evaluate tissue and tumor distribution of TMR-RIF7 in subcutaneous tumor-bearing nude mice. Next, 20 µg of each rabbit anti-Anxa1 antibody (N-19) or rabbit IgG antibody was injected 15 min prior to TMR-IF7 or TMR-RIF7 injection for inhibition assays in pulmonary tumor-bearing mice. Then, resulting images (spectral cube, containing a spectrum at every pixel) were loaded into Maestro™ 2.10 software and analyzed.

lung melanoma (B16-F10) = assay type: in vivo, mouse
Experimental: as §1, with “B16-F10 cells (7.5×10^5 cells suspended in 250 µl PBS) were injected intravenously into BALB/c mice to establish a pulmonary metastatic melanoma model. Specifically, KBv cells (5×10^6cells suspended in […] cell culture medium) were inoculated subcutaneously into the right hind legs of nude mice to produce a subcutaneous KBv xenograft model. Ex” for “Ex”

Anxa1 [2] = target: T1, Anxa1 (Homo sapiens, UniProt P04083); assay: Inhibition assay of cell binding with anti-Anxa1 antibody; assay type: cell-based; settings: A549 cells; for influence of normal rabbit IgG on binding capacity to cells: normal rabbit IgG 4 µg per well 30 min prior to peptide
T1 construct: endogenous in cells; host or cells: A549 cells
T1 sequence (P04083 1-346): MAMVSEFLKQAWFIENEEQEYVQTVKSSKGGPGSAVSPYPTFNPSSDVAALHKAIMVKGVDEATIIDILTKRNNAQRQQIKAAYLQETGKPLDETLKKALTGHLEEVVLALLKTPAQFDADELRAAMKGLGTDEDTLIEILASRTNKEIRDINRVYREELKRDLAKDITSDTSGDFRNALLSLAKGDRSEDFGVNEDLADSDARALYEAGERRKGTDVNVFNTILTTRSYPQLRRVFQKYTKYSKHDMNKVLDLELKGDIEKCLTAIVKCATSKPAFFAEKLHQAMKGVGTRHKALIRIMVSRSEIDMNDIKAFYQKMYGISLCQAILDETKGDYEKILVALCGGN
Experimental: For inhibition assays, anti-Anxa1 antibody or control normal rabbit IgG (4 µg each) was added to each well and incubated for 30 min. TMR-IF7 or TMR-RIF7 (10 µg/ml) were then added and incubated at 37°C for 30 min. The solution was removed and cells were washed three times with ice-cold PBS (pH 7.4) and then visualized under a fluorescent microscope (Leica DMI 4000B, Germany).
(§2) For direct competition studies, non-labeled IF7 or RIF7 (10 µg/ml) was added to each well and incubated for 30 min. TMR-IF7 or TMR-RIF7 (10 µg/ml) were then added and incubated at 37°C for 30 min. The solution was removed and the cells were washed three times with ice-cold PBS (pH 7.4) and then visualized under a fluorescent microscope (Leica DMI 4000B, Germany). The fluorescent signal intensity of each well was quantified using an F-7000 FL spectrophotometer.

A549 cells = assay: Cell binding after pre-incubation in complete medium (10% FBS); assay type: cell-based, human; settings: 10 min; for fluorescent intensity after incubation of peptide with complete medium prior to cells: complete medium containing 10% FBS, 37°C, then A549 cells, IF7 p<0.001, RIF7 p<0.01
Experimental: A549 cells were seeded (5×10^3 cells/well) in 96-well plates (Corning Coaster, Tokyo, Japan) and incubated for 12 h. Cells were incubated with serum free medium (special Dulbecco's modified Eagle medium supplemented with 100 U/mL penicillin, […] streptomycin) containing TMR-RIF7, TMR-IF7, or TMR-RQ7 (TMR conjugated to reverse IF7: sequence RQWLLFI, composed of L-amino acids) at the concentration of 10 µg/ml. In addition, to verify the stability of modified peptides, TMR-IF7 and TMR-RIF7 were incubated with complete medium (special Dulbecco's modified Eagle medium supplemented with 10% heat-inactivated FBS, 100 U/mL penicillin, […] streptomycin) for 10 min at 37°C in advance of serum free medium. The solution was removed and cells were washed three times with ice-cold PBS (pH 7.4) and then visualized under a fluorescent microscope (Leica DMI 4000B, Germany).
as §2

Anxa1 [3] = target: T1, Anxa1; assay: Direct competition study with non-labeled peptide; assay type: cell-based; settings: A549 cells
Experimental: as §2

[4] = system: subcutaneous KBv xenografts; assay: Ex vivo fluorescence imaging, subcutaneous KBv xenograft model; assay type: in vivo; settings: nude mice, both 30 min and 4 h after i.v. injection
Experimental: as §1, with “B16-F10 cells (7.5×10^5 cells suspended in 250 µl PBS) were injected intravenously into BALB/c mice to establish a pulmonary metastatic melanoma model. Specifically, KBv cells (5×10^6cells suspended in […] cell culture medium) were inoculated subcutaneously into the right hind legs of nude mice to produce a subcutaneous KBv xenograft model. Ex” for “Ex”, “Next, 20 µg of each rabbit anti-Anxa1 antibody (N-19) or rabbit IgG antibody was injected 15 min prior to TMR-IF7 or TMR-RIF7 injection for inhibition assays in pulmonary tumor-bearing mice.” left out

Anxa1 [5] = target: T2, Anxa1 (Mus musculus, UniProt P10107); assay: In vivo inhibition assay with anti-Anxa1 antibody in pulmonary tumor-bearing mice; settings: 20 µg rabbit IgG 15 min prior to peptide
T2 construct: IF7 or RIF7 targets tumors through Anxa1 expressed on endothelial cell surfaces; from tissue; host or cells: pulmonary tumour vasculature of tumour-bearing mice (in vivo)
T2 sequence (P10107 1-346): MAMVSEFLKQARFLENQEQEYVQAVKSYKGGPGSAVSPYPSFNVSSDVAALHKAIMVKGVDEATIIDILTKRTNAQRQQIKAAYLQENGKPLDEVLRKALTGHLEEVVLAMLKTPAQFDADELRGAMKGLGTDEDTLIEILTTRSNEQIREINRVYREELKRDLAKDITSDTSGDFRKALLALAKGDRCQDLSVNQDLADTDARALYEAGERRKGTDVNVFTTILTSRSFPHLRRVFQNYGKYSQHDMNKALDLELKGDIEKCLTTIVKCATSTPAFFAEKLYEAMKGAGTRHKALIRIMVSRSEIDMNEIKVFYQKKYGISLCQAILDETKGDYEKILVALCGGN
Experimental: as §1

[6] = Stability of TMR-labeled peptides in mouse plasma; assay type: in vitro ADME; settings: 37°C; for susceptibility to mouse plasma proteases (in words): incubated with fresh mouse plasma, HPLC
Experimental: Mouse blood was collected in serum-separation tubes containing heparin sodium and immediately centrifuged at 10,000 rpm for 10 min. Fresh mouse plasma was then removed and stored for further analysis. Then, 200 µg of TMR-RIF7 and TMR-IF7 was dissolved in 10 µl DMSO, added to 1 ml of the fresh plasma, and incubated at 37°C. A 50 µl aliquot was withdrawn from the incubation mixture at the time indicated, added to 450 µl acetonitrile: water (50∶50) containing 0.1% TFA, centrifuged at 5,000 rpm for 10 min to remove Insoluble material, and then the supernatant was analyzed by HPLC as described previously in §2.2. Elution was monitored (excitation λ = 543 nm; emission λ = 570 nm). The relative amount of TMR-RIF7 and TMR-IF7 that remained in the mouse plasma […].

tumor = settings: mice; cited from earlier work
Text: Hatakeyama's laboratory used peptide-displaying phage technology to generate a carbohydrate mimetic peptide with the consensus sequence IFLLWQR, which was designated IF7 [14]. IF7 has a special affinity for the tumor vasculature and functions as an efficient anticancer drug delivery vehicle, slowing tumor growth. Experiments confirmed that IF7 specifically binds to a 15-kDa fragment of annexin1 (Anxa1). Anxa1 is a member of the large annexin family of cytosolic proteins with calcium-dependent associations with cell membranes.

[7] = TMR-labeled peptide 10 µg/ml, 37°C, 30 min, F-7000 FL spectrophotometer, mean ± SD, n = 3

RQWLLFI [RQ7, control peptide]
signals in the lung ([1]; different time points after i.v. injection, control peptide): remained at background levels

RQWLLFI [RIF7]
signal intensity in lung tumor relative to IF7 (lung melanoma (B16-F10); after 4 h, mean fluorescent intensities in lung tumor region, n = 3): ~2.3 fold | fluorescent signal in lung melanoma compared with the IF7 group (lung melanoma (B16-F10); all survey points (30 min, 4, 8, 12 h)): stronger fluorescent signal | binding to Anxa1 inhibited by anti-Anxa1 antibody (Anxa1 [2]; anti-Anxa1 antibody 4 µg per well 30 min prior to TMR-labeled peptide 10 µg/ml): ~70% | influence of normal rabbit IgG on binding capacity to cells (Anxa1 [2]): little influence | fluorescent intensity after incubation of peptide with complete medium prior to cells (A549 cells): decreased significantly | binding to Anxa1 inhibited by non-labeled peptide (Anxa1 [3]; non-labeled peptide 10 µg/ml 30 min prior to TMR-labeled peptide 10 µg/ml): ~67% | fluorescent signals in organs compared with the other peptide ([1]; 30 min and 4 h after i.v. injection): stronger fluorescent signals at both time points | organ distribution of TMR-labeled peptide [1]: distributed mainly in liver, kidney and tumor tissue | fluorescent intensity in KBv tumors compared to IF7-treated mice [4]: greater fluorescent intensity | effect of normal rabbit IgG injected prior to peptide (Anxa1 [5]): did not alter targeted distribution in the lung

CC[C@H](C)[C@H](NC(=O)c1ccc2c(c1)C(=O)OC21c2ccc(N(C)C)cc2Oc2cc(N(C)C)ccc21)C(=O)N[C@@H](Cc1ccccc1)C(=O)N[C@@H](CC(C)C)C(=O)N[C@@H](CC(C)C)C(=O)N[C@@H](Cc1c[nH]c2ccccc12)C(=O)N[C@@H](CCC(N)=O)C(=O)N[C@@H](CCCNC(=N)N)C(=O)O [TMR-IF7] (5TAMRA-IFLLWQR-OH)
metabolised at 0.5 h, 198 µg/mL ([6]; fresh heparinised mouse plasma, fresh heparin mouse plasma, 200 µg peptide in 10 µl DMSO per 1 ml plasma, within 30 min, HPLC with fluorescence detection (ex 543 nm, em 570 nm), mean of at least three experiments, read-out: peptide degraded in mouse plasma): > 80% | susceptibility to mouse plasma proteases (in words) [6]: rapidly degraded

CC[C@@H](C)[C@@H](NC(=O)[C@@H](Cc1ccccc1)NC(=O)[C@@H](CC(C)C)NC(=O)[C@@H](CC(C)C)NC(=O)[C@@H](Cc1c[nH]c2ccccc12)NC(=O)[C@@H](CCC(N)=O)NC(=O)[C@@H](CCCNC(=N)N)NC(=O)c1ccc2c(c1)C(=O)OC21c2ccc(N(C)C)cc2Oc2cc(N(C)C)ccc21)C(=O)O [TMR-RIF7] (5TAMRA-[dR][dQ][dW][dL][dL][dF][dI]-OH)
resistance to protease in complete medium (qualitative imaging) (A549 cells; complete medium with 10% FBS, 37°C prior to incubation with A549 cells): more resistant to protease in complete medium than TMR-IF7 | remaining at 6 h, 198 µg/mL ([6]; fresh heparinised mouse plasma, fresh heparin mouse plasma, 200 µg peptide in 10 µl DMSO per 1 ml plasma, within 6 h, HPLC with fluorescence detection (ex 543 nm, em 570 nm), mean of at least three experiments, read-out: peptide remaining intact in mouse plasma): ~70% | susceptibility to mouse plasma proteases (in words) [6]: did not change significantly

IFLLWQR [IF7, parent peptide]
mean fluorescent intensity in the lung tumor region (lung melanoma (B16-F10); 12 h post intravenous injection, mean ± SD, n = 3): hardly detectable | time for which the tumor signal remained high (tumor): 40 min | time to detection in the tumor after injection (tumor): ≤ 1 min | time to plateau in the tumor (tumor): 9 min | intensity of fluorescence, cells treated with peptide only (Anxa1 [2]; [7]): 19.32±0.89 | intensity of fluorescence, cells incubated with anti-Anxa1 antibody prior to peptide (Anxa1 [2]; anti-Anxa1 antibody 4 µg per well 30 min, then TMR-labeled peptide 10 µg/ml, 37°C, 30 min, mean ± SD, n = 3): 5.26±1.97 | influence of normal rabbit IgG on binding capacity to cells (Anxa1 [2]): little influence | fluorescent intensity after incubation of peptide with complete medium prior to cells (A549 cells): decreased significantly | fluorescent intensity, cells treated with peptide only (competition assay) (Anxa1 [3]; [7]): 20.31±1.78 | fluorescent intensity, cells pre-incubated with non-labeled competitor (Anxa1 [3]; non-labeled peptide 10 µg/ml 30 min, then TMR-labeled peptide 10 µg/ml, 37°C, 30 min, mean ± SD, n = 3): 4.26±1.96 | organ distribution of TMR-labeled peptide [1]: distributed mainly in liver, kidney and tumor tissue | effect of normal rabbit IgG injected prior to peptide (Anxa1 [5]): did not alter targeted distribution in the lung
